From patent US11577063B2, “Soluble microneedle containing ingredient for controlling release of neurotransmitters” (LG HOUSEHOLD & HEALTH CARE LTD., priority 2015, dated 2023)
Each block holds one compound with its values, some of them ahead of it.

How the values were obtained:
[1] = target: SNARE complex (SNAP25, SynH3 and Vps proteins) (Homo sapiens, UniProt P60880+P63027+Q16623); assay: Inhibition of SNARE complex formation (SDS-PAGE); assay type: biochemical; details: FIG. 4; for ability of inhibiting SNARE complex formation compared with myricetin: at low concentrations; for inhibition of SNARE complex formation: polyphenol 1-50 ppm, room temperature 30 minutes, 12% SDS-PAGE
Chain of SNARE complex (SNAP25, SynH3 and Vps proteins) (P60880 whole entry): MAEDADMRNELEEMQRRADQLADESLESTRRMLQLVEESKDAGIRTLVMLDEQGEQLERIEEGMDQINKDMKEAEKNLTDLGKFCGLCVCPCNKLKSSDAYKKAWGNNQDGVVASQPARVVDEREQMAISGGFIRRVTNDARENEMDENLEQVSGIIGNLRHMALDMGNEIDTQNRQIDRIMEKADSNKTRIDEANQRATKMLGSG
Chain of SNARE complex (SNAP25, SynH3 and Vps proteins) (Q16623 191-266 limits assumed): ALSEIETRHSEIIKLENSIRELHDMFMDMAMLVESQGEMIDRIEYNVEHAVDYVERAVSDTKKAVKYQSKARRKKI
Chain of SNARE complex (SNAP25, SynH3 and Vps proteins) (P63027 1-94 limits assumed): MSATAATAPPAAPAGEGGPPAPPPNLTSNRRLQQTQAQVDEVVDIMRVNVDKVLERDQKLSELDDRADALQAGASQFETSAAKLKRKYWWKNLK
Description: SDS-PAGE (sodium dodecyl sulfate-polyacrylamide gel electrophoresis) analysis was performed to investigate the inhibition of SNARE complex formation by polyphenols such as ampelopsin, kaempferol, myricetin, etc. It was investigated whether the SNARE complex formed when SNAP25, SynH3 and Vps proteins are mixed at a molar ratio of 1:1:1 was inhibited by the addition of the polyphenol compound at a concentration of 1-50 ppm. After adding the respective proteins dropwise into a 1-mL tube, the polyphenol compound was added and reaction was conducted at room temperature for 30 minutes. Then, it was investigated whether the SNARE complex was formed by electrophoresing on 12% SDS-PAGE.

[2] = Maximum content of ampelopsin in cosmetic composition or microneedle; assay type: physicochemical
Description: When ampelopsin is prepared into a cosmetic composition, only less than 0.5% (based on 5% PEG-400 and 70% water) of ampelopsin can be contained in the cosmetic composition. In contrast, a microneedle prepared by the method according to the present disclosure may contain ampelopsin up to 5% based on the dry weight of the microneedle. Accordingly, a product containing the polyphenol at high concentration can be prepared.

[3] = test system: C2C12 cells co-cultured with neuroblasts; assay: Inhibition of muscle contraction by polyphenols, C2C12 cells co-cultured with neuroblasts; assay type: cell-based; details: FIG. 7; for number of contractions of the C2C12 cells: 50 ppm polyphenol, 2 hours incubation, contractions counted for 30 seconds; for effect of inhibiting neurotransmitter release compared with myricetin: 50 ppm, 2 hours
Description: C2C12 cells were cultured in DMEM medium supplemented with 10% fetal calf serum and 1% antibiotic on a plate. Then, neuroblasts were co-cultured additionally on the same plate. When the C2C12 cells began contraction, the number of contractions by the C2C12 cells was measured for 30 seconds. Then, after completely removing the medium and washing 3 times with PBS, the cells were incubated for 2 hours after adding a calf serum-free medium and 50 ppm of the polyphenol compound. Then, the inhibition of muscle contraction was investigated by measuring the number of contractions of the C2C12 cells again for 30 seconds.

[4] = test system: muscle cells and neuroblasts co-culture; assay: Inhibition of muscle contraction in vitro by magnesium gluconate, co-cultured muscle cells and neuroblasts; assay type: cell-based; details: various concentrations, observed 10 minutes after treatment; FIG. 9
Description: After co-culturing muscle cells and neuroblasts in vitro and treating with magnesium gluconate at various concentrations, decrease in the number of muscle contractions was observed 10 minutes later.

ampelopsin content that can be contained in a cosmetic composition ([2]; based on 5% PEG-400 and 70% water): less than 0.5%
ampelopsin content that the microneedle may contain ([2]; based on the dry weight of the microneedle): up to 5%
Compound: O=C1c2c(O)cc(O)cc2O[C@H](c2cc(O)c(O)c(O)c2)[C@H]1O [ampelopsin]
ability of inhibiting SNARE complex formation compared with myricetin [1]: better ability of inhibiting SNARE complex formation at low concentrations
inhibition of SNARE complex formation [1]: effectively inhibit the SNARE complex formation in a concentration-dependent manner
number of contractions of the C2C12 cells [3]: reduce the number of contractions of the C2C12 cells
effect of inhibiting neurotransmitter release compared with myricetin [3]: relatively higher effect of inhibiting the release than myricetin

Compound: O=c1c(O)c(-c2ccc(O)cc2)oc2cc(O)cc(O)c12 [kaempferol]
ability of inhibiting SNARE complex formation compared with myricetin [1]: better ability of inhibiting SNARE complex formation at low concentrations
inhibition of SNARE complex formation [1]: effectively inhibit the SNARE complex formation in a concentration-dependent manner
number of contractions of the C2C12 cells [3]: reduce the number of contractions of the C2C12 cells
effect of inhibiting neurotransmitter release compared with myricetin [3]: relatively higher effect of inhibiting the release than myricetin

Compound: O=c1c(O)c(-c2cc(O)c(O)c(O)c2)oc2cc(O)cc(O)c12 [myricetin]
inhibition of SNARE complex formation [1]: effectively inhibit the SNARE complex formation in a concentration-dependent manner
number of contractions of the C2C12 cells [3]: reduce the number of contractions of the C2C12 cells

Compound: magnesium gluconate
number of muscle contractions [4]: significant decrease in the number of muscle contractions as the concentration of magnesium gluconate was increased
